The first assay concerns the target FLNA pentapeptide of SEQ ID NO: 1 (Bn-VAKGL) (Homo sapiens, UniProt P21333). The assay is described as follows: FITC-NLX-based FLNA screening assay (inhibition of FITC-naloxone binding to Bn-VAKGL on streptavidin plates). The note with it: read-out: Percent Binding Inhibition, FLNA-binding compound 0.01 μM; 10 nM FITC-NLX.
Turning to `COc1c2c(cc3c1C(CC(=O)c1ccncc1)[N+](C)(C)CC3)OCO2` (stereo not drawn) [Compound B0005], the inhibition at 0.01 µM is 31.8%.
As to `COc1cccc(S(=O)(=O)N2CCC3(CC2)OCCN3S(=O)(=O)c2cccc(OC)c2)c1` [Compound C0002], the inhibition at 0.01 µM was determined as 38.4%.
On the same count and under the same terms, to `COc1c2c(cc3c1C(CC(=O)c1cccc(C(F)(F)F)c1)[N+](C)(C)CC3)OCO2` (stereo not drawn) [Compound B0006] belongs 45.1%; to `O=S(=O)(c1ccccc1)N1CCC2(CC1)OCCN2S(=O)(=O)c1ccccc1` [Compound C0016], 38.3%.

The assay is the same for the next values; noted with them: read-out: Percent Binding Inhibition, FLNA-binding compound 0.1 μM; 10 nM FITC-NLX.
Turning to `COc1c2c(cc3c1C(CC(=O)c1ccncc1)[N+](C)(C)CC3)OCO2` (stereo not drawn) [Compound B0005], the inhibition at 0.1 µM is 34.8%.
On to `COc1cccc(S(=O)(=O)N2CCC3(CC2)OCCN3S(=O)(=O)c2cccc(OC)c2)c1` [Compound C0002], for which the inhibition at 0.1 µM was found to be 45.6%.
Same read-out and setting: to `COc1c2c(cc3c1C(CC(=O)c1cccc(C(F)(F)F)c1)[N+](C)(C)CC3)OCO2` (stereo not drawn) [Compound B0006] belongs 53.5%; to `O=S(=O)(c1ccccc1)N1CCC2(CC1)OCCN2S(=O)(=O)c1ccccc1` [Compound C0016], 43.8%.

Staying with this assay, now noted: read-out: Percent Binding Inhibition, FLNA-binding compound 1 μM; 10 nM FITC-NLX.
As to `COc1c2c(cc3c1C(CC(=O)c1ccncc1)[N+](C)(C)CC3)OCO2` (stereo not drawn) [Compound B0005], the inhibition at 1 µM worked out at 41.7%.
Same read-out and setting: to `COc1cccc(S(=O)(=O)N2CCC3(CC2)OCCN3S(=O)(=O)c2cccc(OC)c2)c1` [Compound C0002] belongs 42.8%.
On the same count and under the same terms, the same measure for `COc1c2c(cc3c1C(CC(=O)c1cccc(C(F)(F)F)c1)[N+](C)(C)CC3)OCO2` (stereo not drawn) [Compound B0006]: 61.3%.
Still for that read-out and setting: to `O=S(=O)(c1ccccc1)N1CCC2(CC1)OCCN2S(=O)(=O)c1ccccc1` [Compound C0016] belongs 49.1%.

The test system of another assay is mu opiate receptor (MOR). As to the kind of experiment: MOR agonist activity using [35S]GTPγS binding assay in striatal membranes. The class given is biochemical. The note with it: Series B; 0.1 μM compound, relative to DAMGO. In short, it runs like this: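 Striatal membranes (200 μg) were preincubated 5 min at 30 °C in HEPES pH 7.5 with 100 mM NaCl, 1 mM MgCl2 and 0.5 nM [35S]GTPγS, then 5 min more with 0.1–10 μM compound. Gαo was immunoprecipitated and bound radioactivity counted by scintillation.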
(In general: GTPγS is a poorly hydrolysed GTP analogue; its binding reports G protein activation.)
For the molecule `COc1c2c(cc3c1C(CC(=O)c1ccncc1)[N+](C)(C)CC3)OCO2` (stereo not drawn) [Compound B0005], the “% DAMGO (0.1 μM)” value is 50.5%.
For `COc1c2c(cc3c1C(CC(=O)c1cccc(C(F)(F)F)c1)[N+](C)(C)CC3)OCO2` (stereo not drawn) [Compound B0006], the “% DAMGO (0.1 μM)” value was 44.8%.

Still in this assay, the particulars now being: Series B; 0.1 μM compound; [35S]GTPγS binding to Gαo, striatal membranes.
Take `COc1c2c(cc3c1C(CC(=O)c1ccncc1)[N+](C)(C)CC3)OCO2` (stereo not drawn) [Compound B0005]: the “MOR agonist activity, percent [35S]GTPγS binding at the stated compound concentration” value (“MOR agonist activity, percent” for short) is on record as 89.2%.
On the same count and under the same terms, the same measure for `COc1c2c(cc3c1C(CC(=O)c1cccc(C(F)(F)F)c1)[N+](C)(C)CC3)OCO2` (stereo not drawn) [Compound B0006]: 77.0%.

The same assay, now with this note: Series B; 1 μM compound + 1 μM β-FNA.
As to `COc1c2c(cc3c1C(CC(=O)c1ccncc1)[N+](C)(C)CC3)OCO2` (stereo not drawn) [Compound B0005], the “MOR agonist activity, percent” value is on record as 45.1%.
On the same count and under the same terms, the same measure for `COc1c2c(cc3c1C(CC(=O)c1cccc(C(F)(F)F)c1)[N+](C)(C)CC3)OCO2` (stereo not drawn) [Compound B0006]: 18.6%.

The assay is the same for the next values; noted with them: Series B; 1 μM compound + β-FNA, relative to DAMGO + BFNA.
Consider `COc1c2c(cc3c1C(CC(=O)c1ccncc1)[N+](C)(C)CC3)OCO2` (stereo not drawn) [Compound B0005], for which the “% DAMGO + BFNA” value is 68.6%.
Same read-out and setting: to `COc1c2c(cc3c1C(CC(=O)c1cccc(C(F)(F)F)c1)[N+](C)(C)CC3)OCO2` (stereo not drawn) [Compound B0006] belongs 29.0%.

Still in this assay, the particulars now being: Series B; 1 μM compound, relative to DAMGO.
For `COc1c2c(cc3c1C(CC(=O)c1ccncc1)[N+](C)(C)CC3)OCO2` (stereo not drawn) [Compound B0005], the “% DAMGO (1 μM)” value was found to be 42.6%.
Same read-out and setting: the same measure for `COc1c2c(cc3c1C(CC(=O)c1cccc(C(F)(F)F)c1)[N+](C)(C)CC3)OCO2` (stereo not drawn) [Compound B0006]: 47.5%.

The assay is the same for the next values; noted with them: Series B; 1 μM compound; [35S]GTPγS binding to Gαo, striatal membranes.
As to `COc1c2c(cc3c1C(CC(=O)c1ccncc1)[N+](C)(C)CC3)OCO2` (stereo not drawn) [Compound B0005], the “MOR agonist activity, percent” value is on record as 110.4%.
The same measure, in the same setting: the same measure for `COc1c2c(cc3c1C(CC(=O)c1cccc(C(F)(F)F)c1)[N+](C)(C)CC3)OCO2` (stereo not drawn) [Compound B0006]: 131.3%.

Staying with this assay, now noted: Series C-1; 0.1 μM compound, relative to DAMGO.
Turning to `COc1cccc(S(=O)(=O)N2CCC3(CC2)OCCN3S(=O)(=O)c2cccc(OC)c2)c1` [Compound C0002], the “% DAMGO (0.1 μM)” value is recorded as 51.4%.
Same read-out and setting: to `O=S(=O)(c1ccccc1)N1CCC2(CC1)OCCN2S(=O)(=O)c1ccccc1` [Compound C0016] belongs 100.4%.

Staying with this assay, now noted: Series C-1; 0.1 μM compound; [35S]GTPγS binding to Gαo, striatal membranes.
In the case of `COc1cccc(S(=O)(=O)N2CCC3(CC2)OCCN3S(=O)(=O)c2cccc(OC)c2)c1` [Compound C0002], the “Concentration of FLNA-Binding Compound as Agonist 0.1 μM” value came out at 88.4%.
`O=S(=O)(c1ccccc1)N1CCC2(CC1)OCCN2S(=O)(=O)c1ccccc1` [Compound C0016]: the “Concentration of FLNA-Binding Compound as Agonist 0.1 μM” value turned out to be 172.7%.

The assay is the same for the next values; noted with them: Series C-1; 1 μM compound + 1 μM β-FNA.
As for `COc1cccc(S(=O)(=O)N2CCC3(CC2)OCCN3S(=O)(=O)c2cccc(OC)c2)c1` [Compound C0002], the “Concentration of FLNA-Binding Compound as Agonist 1 μM + BFNA” value came to 3.9%.
The same measure, in the same setting: the same measure for `O=S(=O)(c1ccccc1)N1CCC2(CC1)OCCN2S(=O)(=O)c1ccccc1` [Compound C0016]: 96.7%.

The assay is the same for the next values; noted with them: Series C-1; 1 μM compound + β-FNA, relative to DAMGO + BFNA.
Regarding `COc1cccc(S(=O)(=O)N2CCC3(CC2)OCCN3S(=O)(=O)c2cccc(OC)c2)c1` [Compound C0002], the “% DAMGO + BFNA” value came out at 6.1%.
Turning to `O=S(=O)(c1ccccc1)N1CCC2(CC1)OCCN2S(=O)(=O)c1ccccc1` [Compound C0016], the “% DAMGO + BFNA” value is given as 150.9%.

Staying with this assay, now noted: Series C-1; 1 μM compound, relative to DAMGO.
Regarding `COc1cccc(S(=O)(=O)N2CCC3(CC2)OCCN3S(=O)(=O)c2cccc(OC)c2)c1` [Compound C0002], the “% DAMGO (1 μM)” value was found to be 33.9%.
The same measure, in the same setting: the same measure for `O=S(=O)(c1ccccc1)N1CCC2(CC1)OCCN2S(=O)(=O)c1ccccc1` [Compound C0016]: 83.3%.

The same assay, now with this note: Series C-1; 1 μM compound; [35S]GTPγS binding to Gαo, striatal membranes.
For `COc1cccc(S(=O)(=O)N2CCC3(CC2)OCCN3S(=O)(=O)c2cccc(OC)c2)c1` [Compound C0002], the “Concentration of FLNA-Binding Compound as Agonist 1 μM” value is 93.8%.
In the case of `O=S(=O)(c1ccccc1)N1CCC2(CC1)OCCN2S(=O)(=O)c1ccccc1` [Compound C0016], the “Concentration of FLNA-Binding Compound as Agonist 1 μM” value was 230.5%.

One may read the inhibition as how much of the control response was suppressed.

These data come from patent US10363239B2, “Method for inhibiting growth of cancer cells” (Pain Therapeutics, Inc., priority 2013, dated 2019).
